For the assay, the target named is T1, Oxysterols receptor LXR-beta (Homo sapiens) (UniProt P55055).
T1 sequence (whole entry): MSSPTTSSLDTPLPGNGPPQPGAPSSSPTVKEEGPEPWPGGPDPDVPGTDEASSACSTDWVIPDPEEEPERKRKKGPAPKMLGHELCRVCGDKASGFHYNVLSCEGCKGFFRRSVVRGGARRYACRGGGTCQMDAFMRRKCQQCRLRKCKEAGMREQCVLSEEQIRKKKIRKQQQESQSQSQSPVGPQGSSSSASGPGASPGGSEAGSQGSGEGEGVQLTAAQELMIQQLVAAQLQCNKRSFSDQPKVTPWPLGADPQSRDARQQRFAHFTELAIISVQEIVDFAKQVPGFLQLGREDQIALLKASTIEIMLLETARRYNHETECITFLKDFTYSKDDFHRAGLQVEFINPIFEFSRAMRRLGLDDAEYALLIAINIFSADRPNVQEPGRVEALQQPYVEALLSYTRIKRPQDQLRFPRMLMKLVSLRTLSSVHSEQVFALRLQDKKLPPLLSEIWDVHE
The experiment in a line: Agonist activity at human LXRbeta expressed in CV1 cells after 20 hrs by luciferase reporter co-transfection assay relative to control. It is filed as cell-based. The settings on record: CV-1. In general terms: In a reporter assay the amount or activity of a reporter protein is the signal.
Consider `Cc1nc(C(F)(F)F)c(Cl)n1-c1ccc(-c2cc(F)c(CO)c(S(C)(=O)=O)c2)cc1-n1nncc1-c1ccc(OC(F)(F)F)cc1`, for which the Efficacy worked out at 116%.

The compound `Cc1nc(C(F)(F)F)cn1-c1ccc(-c2cccc(S(C)(=O)=O)c2)cc1-n1nncc1Cc1cccc(Cl)c1` showed an Efficacy of 100%. Consider `Cc1nc(C(F)(F)F)cn1-c1ccc(-c2cc(F)c(CO)c(S(C)(=O)=O)c2)cc1-c1nc(C(C)C)oc1-c1ccc(OC(F)(F)F)cc1`, for which the Efficacy came to 75%. Next, `Cc1nc(C(F)(F)F)cn1-c1c(F)cc(-c2cccc(S(C)(=O)=O)c2)cc1-n1nncc1-c1ccc(Cl)cc1`: 85%.

Source of the values: ChEMBL document CHEMBL3352733, “Liver x receptor agonists for the treatment of coronary heart disease and other disorders” (ACS Med Chem Lett, 2014).
